Experimental data as given in patent publication EP0954520B1, “ISOFLAVONE DERIVATIVES, PROCESSES FOR THE PREPARATION THEREOF AND PHARMACEUTICAL COMPOSITIONS CONTAINING THEM” (CHIESI FARMACEUTICI S.p.A., priority 1997, dated 1998).

What was measured:
[1] = tested on: immature rats; experiment: Uterotrophic and antiuterotrophic actions in immature rat assay (uterine weight); format: in vivo; conditions: for suppression of estradiol's activity (uterotrophic action): with 17b-estradiol
Experimental: The uterotrophic and antiuterotrophic actions of CHF 3316.01 were studied to determine the estrogenic and antiestrogenic activity of CHF 3316.01 in immature rat assay. All experiments were conducted using subcutaneous injection of the test compound as a solution in 20% Solutol HS 15. Each experiment was accompained by a vehicle control group and a positive control group (17b-estradiol 2 mg/kg by subcutaneous injection). The test protocol was based on the immature rat assay protocol described by […]. and […] Endocr (1978), 99, 445-464. Animals were dosed on 3 successive days with the appropriate material. Animals were killed by an overdose of CO2 24 hr after the final dose. The body of the uterus was cut just above its junction with the cervix and at the junction of the uterine horns with the ovaries. The uterus was then weighed. Generally, 6 animals per exposure group were employed. The daily dose levels used for CHF 3316.01 were 10 and 20 mg/kg.

[2] = molecular target: T1, estrogen receptors (Bos taurus, UniProt P49884); experiment: biochemical
T1 sequence (P49884 1-596): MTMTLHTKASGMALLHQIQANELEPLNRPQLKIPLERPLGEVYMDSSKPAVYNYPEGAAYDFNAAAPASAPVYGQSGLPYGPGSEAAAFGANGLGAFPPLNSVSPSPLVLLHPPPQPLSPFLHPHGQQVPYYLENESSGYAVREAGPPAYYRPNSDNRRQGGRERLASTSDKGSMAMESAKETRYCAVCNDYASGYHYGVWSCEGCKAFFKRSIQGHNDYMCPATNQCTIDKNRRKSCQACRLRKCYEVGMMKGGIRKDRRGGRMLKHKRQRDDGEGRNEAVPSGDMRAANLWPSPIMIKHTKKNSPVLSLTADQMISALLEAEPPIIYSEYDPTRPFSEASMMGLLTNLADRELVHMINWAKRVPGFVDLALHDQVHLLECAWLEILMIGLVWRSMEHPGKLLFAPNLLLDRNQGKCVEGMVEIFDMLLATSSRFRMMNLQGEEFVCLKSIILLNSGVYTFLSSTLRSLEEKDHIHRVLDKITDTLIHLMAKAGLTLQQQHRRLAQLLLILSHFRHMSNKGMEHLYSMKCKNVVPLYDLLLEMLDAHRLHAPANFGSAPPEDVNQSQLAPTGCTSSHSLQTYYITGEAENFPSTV
Experimental: To determine the estrogen receptor binding affinity of CHF 3316.01 calf uterus, prepared as previously described in McGuire W. L. et al. Eds. Estrogen receptors in human breast cancer, Raven Press N. Y., (1975), was used as source of estrogen receptors.
Displacement curves were generated using final concentrations of 1.5 nM 17b-[3H]estradiol as radioligand and (1)/(2) [formula] -log unit increments of CHF 3316.01, ranging from 0.1 to 10,000 nM.
Incubation time was 24 hr at 4°C, after which dextran-treated charcoal was added. The suspension was then centrifuged, and radioactivity in the supernatant fluid was determined by scintillation counting. Percent binding was determined in duplicate at each concentration of displacing ligand.
IC50 value for 50 % inhibition of 17b-[3H]estradiol binding and Ki value were determined by non linear regression analysis of log concentration-displacement curves.

[3] = tested on: fetal rat long bones (radius and ulna); experiment: Bone resorption in fetal rat long bone culture (bPTH 1-34 induced 45Ca release); conditions: for inhibition of 45Ca release induced by bPTH: bPTH 1-34 5 nM, 5 days culture
[4] = tested on: fetal rat long bones (radius and ulna); experiment: as above; format: cell-based; conditions: 5 nM, day 5; n=7
Experimental: Pregnant Sprague-Dawley rats were injected subcutaneously with 0.2 mCi 45Ca (CaCl2, >10 Ci/g) on the 18th day of gestation (day of vaginal plug discovery equals day 0 of pregnancy).
To remove freely exchangeable 45Ca, bones were pre-incubated for 24 hours in 48-well polystyrene culture dishes (Costar, Cambridge, MA) containing 500 µl of a culture medium (BGJ-B medium) in an air humidified incubator at 37°C in 5% C02.
The medium was changed after 2 days.

`C[C@]12CC[C@@H]3c4ccc(O)cc4CC[C@H]3[C@@H]1CC[C@@H]2O` [17b-estradiol, reference compound] was tested, and the “increase of uterine weight above vehicle control group” value ([1]; 2 mg/kg subcutaneous, three successive daily injections, immature rats) was 93%.

`O=c1c(-c2ccc(O)cc2)coc2cc(O)ccc12` [Example M2, 4',7-dihydroxyisoflavone, reference compound] was tested, and the Ki [2] was 127 nM.

Work on `O=P(O)(O)C(Cl)(Cl)P(=O)(O)O` [Disodium clodronate, dichloromethylene bisphosphonate, reference compound] yielded an inhibition at 5 µM ([3]; Rattus norvegicus, 120 h, read-out: inhibition of resorption) of 90 ± 5%.

With `Cl.O=C(c1ccc(OCCN2CCCCC2)cc1)c1oc2cc(O)ccc2c(=O)c1-c1ccc(O)cc1` [CHF 3316.01, 4',7-dihydroxy-2-(4-(2-(N-piperidinyl)ethyloxy)benzoyl)isoflavone hydrochloride] the Ki [2] was 3.9 ± 0.3 nM, the “inhibition of 45Ca release induced by bPTH” value (from here on “inhibition … by bPTH”) ([3]; 3 mM (so in the source)) was 24.81±2.14% and the “inhibition … by bPTH” value ([3]; 10 mM (so in the source)) was 37.86%. The “inhibition … by bPTH” value ([3]; 30 mM (so in the source)) was “full inhibition”, the IC50 ([3]; Rattus norvegicus, read-out: apparent IC50 value) was 10000 nM and the “potency relative to M3 (more potent)” value ([3]; versus metabolite 3 of ipriflavone M3) was ~2 fold. The “suppression of estradiol's activity (uterotrophic action)” value ([1]; 10 mg/Kg per day subcutaneous, 3 days) was 63%, the “suppression of estradiol's activity (uterotrophic action)” value ([1]; 20 mg/Kg per day subcutaneous, 3 days) was 78% and the uterotrophic activity ([1]; 10 and 20 mg/kg per day subcutaneous, 3 days) was “devoid of uterotrophic activity”.

For “bPTH 1-34: bovine parathyroid hormone fragment 1-34, used to induce resorption (AVSEIQFMHNLGKHLSSMERVEWLRKKLQDVHNF; Parathyroid hormone; UniProt P01268 32-65, looked up, fragment)”, the “45Ca release, treated over control (T/C) ratio” value [4] was 4.27±0.33.
